The values below are quoted from earlier work in patent US20110070315A1 (priority 2009, published 2011).

Structures are written as SMILES.

This data set deals with hair loss.

For `Cl.NCCCC[C@H](N)C(=O)O` [L—Lysine HCl, L-Lysine HCl], the decreases hair loss result was “one half”.
